This note sets out measurements from paper PMC3900635, “Transport Rankings of Non-Steroidal Antiinflammatory Drugs across Blood-Brain Barrier In Vitro Models” (PLoS ONE, 2014).

Where two headings read alike, the source gives them in different places.

A short description of data set [1]: Group transport studies across ECV304 layers (Transwell). The following applies: human, PEcell. As for the experimental part: (§1) All solutions were prepared under sterile conditions.
(§2) For quantification of NSAIDs a reverse-phase high-performance liquid chromatography (RP-HPLC) system from Shimadzu was used (DGV-20A5/prominence Degasser, SIL – 20AC/prominence Auto Sampler, CTO – 20AC/prominence Column Oven, SPD – 20A/prominence UV detector, CMB – 20A/prominence Communications Bus Module). […] Before analysis proteins of samples were precipitated with ice-cold methanol or acetonitril depending on mobile phase composition and supernatants were analyzed. Data aquisition and analysis were performed by LC-Solution software (Shimadzu Handelsgesellschaft, Austria). Substances were analysed in triplicates with a injection volume of 20–50 µL.Varying mixtures of methanol, acetonitrile, and 10 mM potassium buffer (pH = 2.5 for all analysis except pH = 3.5 for single studies with celecoxib) were used as mobile phase.
(§3) Permeability coefficients were calculated following the clearance principle as described recently. Results of blank value experiments were included into permeability coefficient calculation by using reciprocal correlation shown in equation (1):
(§4) 1/PEcell = 1/PEall – 1/PEblank (1)
(§5) PEblank refers to the permeability coefficient without cell layer, PEall represents the permeability coefficient through membrane insert and the cell layer and PEcell is the permeability coefficient only through the cell layer.

Data set [2] in a line: Single transport studies across ECV304 layers (Transwell). As for the experimental part:
as §1, §2, §3, §4, §5

Another data set has as its system PBMEC/C1-2 cell layers. Briefly: in vitro. The conditions noted are these: for PEcell: PBMEC/C1-2 group study. As to the method:
as §1, §2, §3, §4, §5

For the next data set, the system named is ECV304 cell layers. Briefly: in vitro. As for the experimental part: as §1, §2, §3, §4, §5
The format of data set [3] is in vitro ADME, calf. The following applies: group composition, ultrafiltration. As for the experimental part: […]. After incubation at 37°C for 40 minutes, 2 mL of the solutions were centrifuged across prewashed (2 mL PBS, 10 minutes, 2500 g) Centrisart ultra-filters (molecular cut-off 10 kDa, Sartorius) at 2500 g for 5 (PBS and 0% serum), 10 (7.5% serum) or 15 (50% and 100% serum) minutes to obtain at least one third to one half of the totally applied volume. […]. Carboxyfluorescein was measured by the microplate reader method as described above. Unbound substance concentrations in the filtrates were related to stock solutions to determine the serum binding (100%-unbound fraction [%]). Blank experiments (PBS, 0% serum experiments) were included in the calculation of serum binding values to consider systematic procedure errors and binding of the substances to the ultrafiltration membrane. Experiments under each condition were repeated for three times.

Data set [4] relates to primary rat brain microvascular endothelial cells (RBMEC). The data set is described as follows: in vitro. As to the method: as §1, §2, §3, §4, §5
The mark [5] stands for this setting: ECV304 group study, all substances (6 NSAIDs, diazepam, CF), C6 medium.
The mark [6] stands for this setting: ECV304 group study, without Meloxicam.
Where [7] appears, read: with probenecid (concentration not stated), ECV304 group study, with Probenecid, without Meloxicam.
Setting [8] is: with verapamil (concentration not stated), ECV304 group study, with Verapamil, without Meloxicam.
Where [9] appears, read: pig, PEcell, PBMEC/C1-2 group study, all substances (6 NSAIDs, diazepam, CF), C6 medium.
Where [10] appears, read: pig, PEcell, PBMEC/C1-2 group study, without Meloxicam.
Setting [11] is: pig, with verapamil (concentration not stated), PEcell, PBMEC/C1-2 group study, with Verapamil, without Meloxicam.

For `Cc1ccc(-c2cc(C(F)(F)F)nn2-c2ccc(S(N)(=O)=O)cc2)cc1` [Celecoxib, celecoxib], the apparent permeability (Papp) at 100 µM in data set [1] (setting [5]) was 11 ×10⁻⁶ cm/s; in data set [1] (setting [6]) it was 23.3 ×10⁻⁶ cm/s; in data set [1] (setting [7]), 15.5 ×10⁻⁶ cm/s; in data set [1] (setting [8]) it was 10.3 ×10⁻⁶ cm/s; in data set [2] (human) it was 7.62 ×10⁻⁶ cm/s; in data set [2] (pig) it was 22.4 ×10⁻⁶ cm/s. The Papp at 100 µM was 22.1 ×10⁻⁶ cm/s in data set [2] (setting [9]); 25.8 ×10⁻⁶ cm/s in data set [2] (setting [10]); 27.8 ×10⁻⁶ cm/s in data set [2] (pig, with probenecid (concentration not stated), PEcell, PBMEC/C1-2 group study, with Probenecid, without Meloxicam); 35.1 ×10⁻⁶ cm/s in data set [2] (setting [11]). Further, the PSblank stood at 6.07 ± 0.45 µL/min with PBMEC/C1-2 cell layers (100 µM) and 5.10 ± 0.06 µL/min in the data set with ECV304 cell layers (100 µM). Further, the PEall with PBMEC/C1-2 cell layers (PBMEC/C1-2, Celecoxib study, insert and cell layer) was 6.95±0.45 µm/min; with ECV304 cell layers (ECV304, Celecoxib study, insert and cell layer), 3.31±0.41 µm/min. The PSall in the data set with PBMEC/C1-2 cell layers (pig, 100 µM) is 2.92 ± 0.19 µL/min; in the data set with ECV304 cell layers (human, 100 µM) it was 1.39 ± 0.17 µL/min. Further, the PScell in the data set on PBMEC/C1-2 cell layers (pig, 100 µM) was 5.62 ± 0.71 µL/min; in the data set on ECV304 cell layers (human, 100 µM), 1.91 ± 0.32 µL/min.
In the case of `CN1C(=O)CN=C(c2ccccc2)c2cc(Cl)ccc21` [Diazepam, diazepam], the PEall with PBMEC/C1-2 cell layers (pig) is reported as 11.10±1.33 µm/min. Also, the Serum binding came out at 19.52±0.13% in data set [3] (Serum concentration 50%), 22.52±0.06% in data set [3] (Serum concentration 100%) and 8.17±0.49% in data set [3] (Serum concentration […] (C6 medium)).
With `CN1C(C(=O)Nc2ccccn2)=C(O)c2ccccc2S1(=O)=O` [Piroxicam, piroxicam], the apparent permeability (Papp) at 100 µM in data set [1] (setting [5]) was 21.4 ×10⁻⁶ cm/s; in data set [1] (ECV304 group study, glioma conditioned medium, without celecoxib), 30.8 ×10⁻⁶ cm/s; in data set [1] (ECV304 group study, serum-free medium, without celecoxib), 37.8 ×10⁻⁶ cm/s; in data set [1] (ECV304 group study, without CF (and without celecoxib)) it was 30.3 ×10⁻⁶ cm/s; in data set [1] (ECV304 group study, without Celecoxib), 28.6 ×10⁻⁶ cm/s; in data set [1] (setting [6]), 45.9 ×10⁻⁶ cm/s. The Papp at 100 µM is 29.5 ×10⁻⁶ cm/s in data set [1] (setting [7]); 26.6 ×10⁻⁶ cm/s in data set [1] (setting [8]); 20.4 ×10⁻⁶ cm/s in data set [2] (human); 39.7 ×10⁻⁶ cm/s in data set [2] (pig); 70 ×10⁻⁶ cm/s in data set [2] (setting [9]); 49.8 ×10⁻⁶ cm/s in data set [2] (pig, PEcell, PBMEC/C1-2 group study, glioma conditioned medium, without celecoxib). In addition, the Papp at 100 µM in data set [2] (pig, PEcell, PBMEC/C1-2 group study, without Celecoxib) is 42.1 ×10⁻⁶ cm/s; in data set [2] (setting [10]) it was 64.2 ×10⁻⁶ cm/s; in data set [2] (setting [11]), 66.8 ×10⁻⁶ cm/s; in data set [2] (rat) it was 52.3 ×10⁻⁶ cm/s. The PSblank with PBMEC/C1-2 cell layers (100 µM) was determined as 8.69 ± 0.72 µL/min; in data set [4] (100 µM), 1.94 ± 0.12 µL/min; in the data set with ECV304 cell layers (100 µM) it was 8.53 ± 0.36 µL/min. Moreover, the PEall in the data set with PBMEC/C1-2 cell layers (PBMEC/C1-2, Piroxicam study, insert and cell layer) was 11.02±0.87 µm/min; in data set [4] (RBMEC group study, insert and cell layer), 12.76±0.33 µm/min; in the data set on ECV304 cell layers (ECV304, Piroxicam study, insert and cell layer), 7.65±0.18 µm/min. In addition, the PEcell in the data set with PBMEC/C1-2 cell layers (serum-free medium, without celecoxib) is reported as 24.96±2.08 µm/min; in the data set with PBMEC/C1-2 cell layers (with Probenecid, without Meloxicam) it was 30.26±5.85 µm/min; in the data set with PBMEC/C1-2 cell layers (without CF (and without celecoxib)), 30.27±2.61 µm/min. The PSall amounted to 4.63 ± 0.36 µL/min in the data set on PBMEC/C1-2 cell layers (pig, 240 min, 100 µM); 1.15 ± 0.03 µL/min in data set [4] (rat, 100 µM); 3.21 ± 0.07 µL/min in the data set on ECV304 cell layers (human, 100 µM). Moreover, the PScell was 9.91 ± 1.60 µL/min with PBMEC/C1-2 cell layers (pig, 240 min, 100 µM); 2.82 ± 0.17 µL/min in data set [4] (rat, 100 µM); 5.15 ± 0.19 µL/min with ECV304 cell layers (human, 240 min, 100 µM).
For the molecule carboxyfluorescein [CF], the “Permeability coefficients (PEcell), range of averages over the single studies” value in the data set with PBMEC/C1-2 cell layers is 16.67-19.66 µm/min.
`CN1C(C(=O)Nc2ccccn2)=C(O)c2sccc2S1(=O)=O` [Tenoxicam, tenoxicam]: the Papp at 100 µM in data set [2] (human) is 12.3 ×10⁻⁶ cm/s; in data set [2] (pig), 36.7 ×10⁻⁶ cm/s; in data set [2] (pig, PEcell), 38.5 ×10⁻⁶ cm/s; in data set [2] (rat), 21.9 ×10⁻⁶ cm/s. The PSblank in the data set on PBMEC/C1-2 cell layers (100 µM) is 7.47 ± 0.31 µL/min; in data set [4] (100 µM) it was 1.74 ± 0.10 µL/min; in the data set on ECV304 cell layers (100 µM) it was 7.12 ± 0.50 µL/min. The PEall in the data set on PBMEC/C1-2 cell layers (pig, 100 µM) turned out to be 9.84±0.16 µm/min; in data set [4] (rat, 100 µM), 7.82±0.21 µm/min; in the data set with ECV304 cell layers (human, 100 µM), 5.15±0.05 µm/min. The PSall was 4.13 ± 0.07 µL/min with PBMEC/C1-2 cell layers (pig, 100 µM); 0.70 ± 0.02 µL/min in data set [4] (rat, 100 µM); 2.16 ± 0.02 µL/min with ECV304 cell layers (human, 100 µM). Further, the PScell with PBMEC/C1-2 cell layers (pig, 100 µM) stood at 9.25 ± 0.33 µL/min; in data set [4] (rat, 100 µM), 1.18 ± 0.05 µL/min; with ECV304 cell layers (human, 100 µM), 3.11 ± 0.04 µL/min.
On to `O=C(O)Cc1ccccc1Nc1c(Cl)cccc1Cl` [Diclofenac, diclofenac], for which the Papp at 100 µM in data set [2] (human) is 9.45 ×10⁻⁶ cm/s; in data set [2] (pig), 17.7 ×10⁻⁶ cm/s; in data set [2] (rat) it was 44.6 ×10⁻⁶ cm/s. Besides, the PSblank with PBMEC/C1-2 cell layers (100 µM) was 5.83 ± 0.26 µL/min; in data set [4] (100 µM), 1.65 ± 0.13 µL/min; in the data set with ECV304 cell layers (100 µM), 4.08 ± 0.41 µL/min. Also, the PEall was found to be 6.00±0.38 µm/min with PBMEC/C1-2 cell layers (pig, 100 µM); 10.84±0.51 µm/min in data set [4] (rat, 100 µM); 3.58±0.18 µm/min in the data set with ECV304 cell layers (human, 100 µM). Moreover, the PSall in the data set with PBMEC/C1-2 cell layers (pig, 100 µM) turned out to be 2.52 ± 0.16 µL/min; in data set [4] (rat, 100 µM), 0.96 ± 0.05 µL/min; with ECV304 cell layers (human, 100 µM), 1.50 ± 0.08 µL/min. In addition, the PScell with PBMEC/C1-2 cell layers (pig, 100 µM) is 4.44 ± 0.48 µL/min; in data set [4] (rat, 100 µM) it was 2.39 ± 0.27 µL/min; with ECV304 cell layers (human, 100 µM), 2.38 ± 0.19 µL/min.
Take `CC(C)Cc1ccc(C(C)C(=O)O)cc1` (centres unmarked) [Ibuprofen, ibuprofen]: the Papp at 100 µM in data set [1] was 16.3 ×10⁻⁶ cm/s; in data set [2] (pig), 28.2 ×10⁻⁶ cm/s; in data set [2] (rat) it was 53.3 ×10⁻⁶ cm/s. Besides, the PSblank with PBMEC/C1-2 cell layers turned out to be 6.72 ± 0.12 µL/min; in data set [4] it was 1.71 ± 0.15 µL/min. The PScell in the data set with PBMEC/C1-2 cell layers (PBMEC/C1-2, Ibuprofen study, cell layer only) amounted to 7.10 ± 0.65 µL/min; in data set [4] (rat) it was 2.86 ± 0.39 µL/min. Further, the PSall with PBMEC/C1-2 cell layers (PBMEC/C1-2, Ibuprofen study, insert and cell layer) was found to be 3.45 ± 0.15 µL/min; in data set [4] (rat), 1.07 ± 0.06 µL/min. Besides, in the data set on ECV304 cell layers (human, 100 µM), the PEall amounted to 4.82±0.05 µm/min.
